Read-outs that look alike come from different tables or passages of the source.
Assays:
Assay type in all cases: cell-based
[1] = tested on: HIV-1/LAI strain selected with Compound 2 (100 nM), protease R41I; test: In vitro antiviral activity in acutely infected MT4 cells, selected strain; conditions: Human immunodeficiency virus 1, Table 3, R41I strain selected with Compound 2 100 nM (head lists 116, 200, 264 days; assignment unclear), read-out: median EC50
Protocol: (§1) Determination of the antiviral activity of a compound was done as described in Pauwels R. et al. (J Virol Methods 1988; 20(4):309-21). Various concentrations of the test compounds were brought into each well of a flat-bottom microtiter plate. Subsequently, HIV and MT4 cells were added to a final concentration of 200-250 50% cell culture infectious doses (CCID50)/well and 30,000 cells/well, respectively. After 5 days of incubation (37° C., 5% CO2), the cytopathic effect of the replicating virus was determined by the tetrazolium colorimetric MTT method. The dose protecting 50% of the cells from virus cytopathic effect was defined as the EC50, while the dose achieving 90% protection was defined as the EC90.
(§2) MT4-LTR-EGFP cells were infected at a multiplicity of infection (MOI) of 0.01 to 0.001 CCID50/cell in the presence of inhibitor. The starting concentration of the inhibitor was two to tee times the EC50, a suboptimal concentration. The cultures were sub-cultivated and scored microscopically on virus-induced fluorescence and cytopathicity every 3-4 days. […] The escaping virus was further cultivated in the presence of the same inhibitor concentration in order to enrich the population in resistant variants. If full virus breakthrough was observed the supernatant was collected and stored (new virus strain). […] From the new viruses, a virus stock was grown in the absence of inhibitor.

[2] = tested on: HIV-1/LAI strain selected with Compound 2 (100 nM), protease R41I; Table 3; test: as above; conditions: Human immunodeficiency virus 1, R41I strain selected with Compound 2 100 nM (head lists 116, 200, 264 days; assignment unclear), read-out: median EC50
Protocol: as §1
(§3) MT4-LTR-EGFP cells were infected at a multiplicity of infection (MOI) of 0.01 to 0.001 CCID50/cell in the presence of inhibitor. The starting concentration of the inhibitor was two to tee times the EC50, a suboptimal concentration. The cultures were sub-cultivated and scored microscopically on virus-induced fluorescence and cytopathicity every 3-4 days. The cultures were sub-cultivated in the presence of the same compound concentration until signs of virus replication were observed. The escaping virus was further cultivated in the presence of the same inhibitor concentration in order to enrich the population in resistant variants. If full virus breakthrough was observed the supernatant was collected and stored (new virus strain). Afterwards, the same virus was challenged with a higher compound concentration in order to select variants able to grow in the presence of as high as possible inhibitor concentrations. From the new viruses, a virus stock was grown in the absence of inhibitor.
(§4) In vitro drug selection experiments starting from wild-type HIV-1 under pressure of compound 1, compound 2, and Nelfinavir (NFV) have been performed. Tables 1, 2, 3, 4, and 5 show the genotypic and phenotypic characterization of the selected strains.

HIV-1/LAI = test: In vitro antiviral activity in acutely infected MT4 cells, wild type; conditions: read-out: median EC50
Protocol: as §1, §3, §4

[3] = tested on: HIV-1 starting strain of Table 4 (no compound, no mutations); test: In vitro antiviral activity in acutely infected MT4 cells, starting strain; conditions: for EC50: Human immunodeficiency virus 1, starting strain HIV-1, no compound, read-out: median EC50
Protocol: as §1, §3, §4

[4] = tested on: HIV-1/LAI strain selected with Compound 1 (100 nM, 97 days), protease R41T K70E; test: In vitro antiviral activity in acutely infected MT4 cells, selected strain; conditions: for EC50: Human immunodeficiency virus 1, Table 1, strain R41T K70E (Compound 1 100 nM, 97 days), read-out: median EC50
Protocol: as §1, §2

[5] = tested on: HIV-1/LAI strain selected with Compound 1 (100 nM, 188 days), protease R41T K70E; test: as above; conditions: for EC50: Human immunodeficiency virus 1, Table 1, strain R41T K70E (Compound 1 100 nM, 188 days), read-out: median EC50
Protocol: as §1, §3, §4

[6] = tested on: HIV-1/LAI strain selected with Compound 1 (30 nM, 45 days), protease R41T; test: as above; conditions: for EC50: Human immunodeficiency virus 1, Table 1, strain R41T (Compound 1 30 nM, 45 days), read-out: median EC50
Protocol: as §1, §3, §4

[7] = tested on: HIV-1 strain selected with Comp 1 (40 nM, 161 days), protease R41G V82I; test: as above; conditions: for EC50: Human immunodeficiency virus 1, Table 4, strain R41G V82I (Comp 1 40 nM, 161 days), read-out: median EC50
Protocol: as §1, §3, §4

[8] = tested on: HIV-1 strain selected with Comp 1 (40 nM, 175 days), protease R41G V82I; test: as above; conditions: for EC50: Human immunodeficiency virus 1, Table 4, strain R41G V82I (Comp 1 40 nM, 175 days), read-out: median EC50
Protocol: as §1, §3, §4

[9] = tested on: HIV-1/LAI strain selected with Comp 1 (100 nM, 139 days), protease S37S/N R41R/K K70E; test: as above; conditions: for EC50: Human immunodeficiency virus 1, Table 2, strain S37S/N R41R/K K70E (Comp 1 100 nM, 139 days), read-out: median EC50
Protocol: as §1, §3, §4

[10] = tested on: HIV-1/LAI strain selected with Comp 1 (100 nM, 195 days), protease S37N R41S K70E; test: as above; conditions: for EC50: Human immunodeficiency virus 1, Table 2, strain S37N R41S K70E (Comp 1 100 nM, 195 days), read-out: median EC50
Protocol: as §1, §3, §4

[11] = tested on: HIV-1/LAI strain selected with Comp 1 (200 nM, 328 days), protease S37N R41S K70E; test: as above; conditions: for EC50: Human immunodeficiency virus 1, Table 2, strain S37N R41S K70E (Comp 1 200 nM, 328 days), read-out: median EC50
Protocol: as §1, §3, §4

[12] = tested on: HIV-1 strain selected with Comp 1 (20 nM, 94 days), protease R41G/R V82V/I; test: as above; conditions: for EC50: Human immunodeficiency virus 1, Table 4, strain R41G/R V82V/I (Comp 1 20 nM, 94 days), read-out: median EC50
Protocol: as §1, §3, §4

[13] = tested on: HIV-1/LAI strain selected with Comp 1 (30 nM, 70 days), protease K70E; test: as above; conditions: for EC50: Human immunodeficiency virus 1, Table 2, strain K70E (Comp 1 30 nM, 70 days), read-out: median EC50
Protocol: as §1, §3, §4

[14] = tested on: HIV-1/LAI strain selected with NFV (1000 nM, 35 days), protease D30N M46I; test: as above; conditions: Human immunodeficiency virus 1, Table 5, strain D30N M46I (NFV 1000 nM, 35 days), read-out: median EC50
Protocol: as §1, §3, §4

[15] = tested on: HIV-1/LAI strain selected with NFV (9000 nM, 140 days), protease L10F D30N R41R/K K45I/K M46I V77I I84V N88D; test: as above; conditions: Human immunodeficiency virus 1, Table 5, strain L10F D30N R41R/K K45I/K M46I V77I I84V N88D (NFV 9000 nM, 140 days), read-out: median EC50
Protocol: as §1, §3, §4

[16] = tested on: HIV-1/LAI strain selected with NFV (9000 nM, 11l days), protease L10F D30N R41R/K K45I/K M46I V77I I84V/I I85V/I N88D; test: as above; conditions: Human immunodeficiency virus 1, Table 5, strain L10F D30N R41R/K K45I/K M46I V77I I84V/I I85V/I N88D (NFV 9000 nM, 11l days), read-out: median EC50
Protocol: as §1, §3, §4

[17] = tested on: HIV-1/LAI strain selected with NFV (3000 nM, 69 days), protease L10F D30N M46I V77I I85V/I N88D/N; test: as above; conditions: Human immunodeficiency virus 1, Table 5, strain L10F D30N M46I V77I I85V/I N88D/N (NFV 3000 nM, 69 days), read-out: median EC50
Protocol: as §1, §3, §4

[18] = Human immunodeficiency virus 1, MT4, Table 3, wild-type HIV-1/LAI
[19] = Human immunodeficiency virus 1, MT4, Table 1, wild-type HIV/LAI
[20] = Human immunodeficiency virus 1, MT4, Table 2, wild-type HIV-1/LAI
[21] = Human immunodeficiency virus 1, MT4, Table 4, wild-type HIV-1/LAI
[22] = Human immunodeficiency virus 1, MT4, Table 5, wild-type HIV-1/LAI

| Structure (SMILES) | EC50 [1] [nM] | EC50 [2] [nM] | EC50 (HIV-1/LAI; [18]) [nM] | EC50 [3] [nM] | EC50 [4] [nM] | EC50 [5] [nM] | EC50 [6] [nM] | EC50 [7] [nM] | EC50 [8] [nM] | EC50 [9] [nM] | EC50 [10] [nM] | EC50 [11] [nM] | EC50 [12] [nM] | EC50 [13] [nM] | EC50 (HIV-1/LAI; [19]) [nM] | EC50 (HIV-1/LAI; [20]) [nM] | EC50 (HIV-1/LAI; [21]) [nM] | EC50 [14] [nM] | EC50 [15] [nM] | EC50 [16] [nM] | other results |
| --- | --- | --- | --- | --- | --- | --- | --- | --- | --- | --- | --- | --- | --- | --- | --- | --- | --- | --- | --- | --- | --- |
| CC(C)CN(C[C@@H](O)[C@H](Cc1ccccc1)NC(=O)O[C@H]1CO[C@H]2OCC[C@H]21)S(=O)(=O)c1ccc2nc(NCCN3CCCC3)sc2c1 [Compound 2] | 61 | 6.9 | 12 | – | – | – | – | – | – | – | – | – | – | – | – | – | – | – | – | – | – |
| CC(C)CN(C[C@@H](O)[C@H](Cc1ccccc1)NC(=O)O[C@H]1CO[C@H]2OCC[C@H]21)S(=O)(=O)c1ccc(N)cc1 [Compound 1, Carbamic acid, [(1S,2R)-3-[[(4-aminophenyl)sulfonyl](2-methylpropyl)amino]-2-hydroxy-1-(phenylmethyl)propyl]-, (3R,3aS,6aR)-hexahydrofuro[2,3-b]furan-3-yl ester] | – | – | – | 3.4 | 26 | 44 | 7.7 | 2.6 | 1.9 | 2.5 | 4.7 | 0.4 | 1.1 | 6.5 | 3.2 | 2.6 | 2.6 | – | – | – | median FC (fold change in EC50 as compared to wild type) ([3]; starting strain HIV-1, no compound): 1; median FC (fold change in EC50 as compared to wild type) ([4]; Table 1, strain R41T K70E (Compound 1 100 nM, 97 days)): 8; median FC (fold change in EC50 as compared to wild type) ([5]; Table 1, strain R41T K70E (Compound 1 100 nM, 188 days)): 10; median FC (fold change in EC50 as compared to wild type) ([6]; Table 1, strain R41T (Compound 1 30 nM, 45 days)): 2; median FC (fold change in EC50 as compared to wild type) ([7]; Table 4, strain R41G V82I (Comp 1 40 nM, 161 days)): 1; median FC (fold change in EC50 as compared to wild type) ([8]; Table 4, strain R41G V82I (Comp 1 40 nM, 175 days)): 1; median FC (fold change in EC50 as compared to wild type) ([9]; Table 2, strain S37S/N R41R/K K70E (Comp 1 100 nM, 139 days)): 1; median FC (fold change in EC50 as compared to wild type) ([10]; Table 2, strain S37N R41S K70E (Comp 1 100 nM, 195 days)): 2; median FC (fold change in EC50 as compared to wild type) ([11]; Table 2, strain S37N R41S K70E (Comp 1 200 nM, 328 days)): 0.2; median FC (fold change in EC50 as compared to wild type) ([12]; Table 4, strain R41G/R V82V/I (Comp 1 20 nM, 94 days)): 0; median FC (fold change in EC50 as compared to wild type) ([13]; Table 2, strain K70E (Comp 1 30 nM, 70 days)): 3 |
| CC(C)c1nc(CN(C)C(=O)N[C@H](C(=O)N[C@@H](Cc2ccccc2)C[C@H](O)[C@H](Cc2ccccc2)NC(=O)OCc2cncs2)C(C)C)cs1 [Ritonavir] | – | 22 | 33 | 22 | 21 | 46 | 32 | 6.3 | 1.7 | 22 | 14 | 31 | 4.2 | 47 | 31 | 33 | 33 | 19 | 170 | 86 | EC50 [17]: 27 nM; EC50 (HIV-1/LAI; [22]): 33 nM |
| Cc1cccc(C)c1OCC(=O)N[C@@H](Cc1ccccc1)[C@@H](O)C[C@H](Cc1ccccc1)NC(=O)[C@H](C(C)C)N1CCCNC1=O [Lopinavir] | 18 | < 0.9 | 4.6 | 6.8 | – | 47 | 27 | 1.8 | 1 | 2.8 | 3.9 | 1.1 | 2 | 17 | 7.9 | 4.6 | 4.6 | 7.7 | 56 | 39 | EC50 [17]: 24 nM; EC50 (HIV-1/LAI; [22]): 4.6 nM |

— patent publication US8592161B2, “Mutational profiles in HIV-1 protease correlated with phenotypic drug resistance” (Janssen R&D Ireland, priority 2002, dated 2013)
